Source: patent US20250082764A1, “DRUG FOR TREATING TRIPLE NEGATIVE BREAST CANCER” (HINOVA PHARMACEUTICALS INC., priority 2022, published 2025)

Columns and labels:
Format in all cases: cell-based
MDA-MB-453 cells [1] = test: Inhibition of proliferation of MDA-MB-453 cells by single agents (CCK-8 or CTG); conditions: single agent; co-incubation for 7-10 days
Experimental: Triple negative breast cancer MDA-MB-453 cells in logarithmic growth stage were inoculated into a 96-well plate at a concentration of 4×10^3 cells/well, and then incubated in an incubator at 37° C., 5% CO2, and saturated humidity for 24 h or 48 h. To the negative control well, was added RPMI 1640 cell medium containing 10% fetal bovine serum in the same volume as the drug. After cultured for 24 h or 48 h, to the 96-well plate, were added AR PROTACs compounds 162, 177, 230, 259, 279, 281, 282, 325, 357, 400, ARV-110, ARV-766 and AR inhibitor HC-1119, respectively. The concentrations of compounds 177, 230, 259, 279, 281, 282, 325, 357, 400, ARV-110, and ARV-766 are 0 μM, 0.002 μM, 0.005 μM, 0.014 μM, 0.041 μM, 0.123 μM, 0.370 μM, 1.111μM, 3.333 μM or 10 μM; while the concentrations of HC-1119 are 0 μM, 1.23 μM, 3.70 μM, 11.11 μM, 33.33 μM or 100 μM.
(§1) After addition of the drugs and co-incubation for 7-10 days, 10 μL of CCK-8 was added to each well, and then the plate was further cultured for 2 h. The absorbance value (OD) of each well was measured using a microplate reader at a wavelength of 450 nm. The survival rate was calculated using Prism software, the relative survival rate=(OD value of drug well/OD value of control well)×100%. Alternatively, 100 μL of medium was removed from each well, and then 50 μL of CTG was added. The plate was shaken in the dark for 2 min, allowed to stand for 10 min, and then measured using a microplate reader in Luminescence mode. Prism software was used to calculate the survival rate, the relative survival rate=(the RLU value of drug well/the RLU value of control well)×100%.

MDA-MB-453 cells [2] = test: Proliferation of MDA-MB-453 cells, AR PROTAC in combination with PI3K inhibitor Alpelisib (Combination Index); conditions: molar ratio of compound to Alpelisib 1:27-9:1; 7 days; synergistic when CI<1
Experimental: Triple negative breast cancer MDA-MB-453 cells in logarithmic growth stage were inoculated into a 96-well plate at a concentration of 4×10^3 cells/well, and then incubated in an incubator at 37° C., 5% CO2, and saturated humidity for 24 h. To the negative control wells, were added RPMI 1640 cell culture medium containing 10% fetal bovine serum in the same volume as the drug. After cultured for 24 h, to the 96-well plate, were sequentially added AR PROTACs compounds 279, 281, 282, ARV-110, ARV-766 and PI3K inhibitor Alpelisib, respectively.
as §1, with “7” for “7-10”

MDA-MB-453 cells [3] = test: Proliferation of MDA-MB-453 cells, AR PROTAC in combination with PI3K inhibitor Duvelisib (Combination Index); conditions: molar ratio of compound to Duvelisib 1:30-1:1.111; 7-10 days; synergistic when CI<1
Experimental: Triple negative breast cancer MDA-MB-453 cells in logarithmic growth stage were inoculated into a 96-well plate at a concentration of 4×10^3 cells/well, and then incubated in an incubator at 37° C., 5% CO2, and saturated humidity for 24 h. To the negative control wells, were added RPMI 1640 cell culture medium containing 10% fetal bovine serum in the same volume as the drug. After cultured for 24 h, to the 96-well plate, were sequentially added AR PROTACs compounds 279, 281, 282, ARV-110 and PI3K inhibitor Duvelisib, respectively.
as §1, with “adding” for “addition of”, “co-incubating” for “co-incubation”

MDA-MB-453 cells [4] = test: Proliferation of MDA-MB-453 cells, AR PROTAC in combination with PI3K inhibitor Idelalisib (Combination Index); conditions: molar ratio of compound to Idelalisib 1:270-1:3.333; 7-10 days; synergistic when CI<1
Experimental: Triple negative breast cancer MDA-MB-453 cells in logarithmic growth stage were inoculated into a 96-well plate at a concentration of 4×10^3 cells/well, and then incubated in an incubator at 37° C., 5% CO2, and saturated humidity for 24 h. To the negative control wells, were added RPMI 1640 cell culture medium containing 10% fetal bovine serum in the same volume as the drug. After cultured for 24 h, to the 96-well plate, were sequentially added AR PROTACs compounds 279, 281, 282, ARV-110, ARV-766 and PI3K inhibitor Idelalisib, respectively.
as §1, with “adding” for “addition of”, “co-incubating” for “co-incubation”

MDA-MB-453 cells [5] = test: Proliferation of MDA-MB-453 cells, AR PROTAC in combination with chemotherapeutic drug Paclitaxel (Combination Index); conditions: molar ratio of compound to Paclitaxel 20:1-5000:1; 7 days; synergistic when CI<1
Experimental: Triple negative breast cancer MDA-MB-453 cells in logarithmic growth stage were inoculated into a 96-well plate at a concentration of 4×10^3 cells/well, and then incubated in an incubator at 37° C., 5% CO2, and saturated humidity for 24 h. To the negative control wells, were added RPMI 1640 cell culture medium containing 10% fetal bovine serum in the same volume as the drug. After cultured for 24 h, to the 96-well plate, were sequentially added AR PROTACs compounds 279, 281, 282, ARV-110 and chemotherapeutic drug Paclitaxel, respectively.
as §1, with “adding” for “addition of”, “co-incubating” for “co-incubation”, “7” for “7-10”

Q: With `N#Cc1ccc(O[C@H]2CC[C@H](NC(=O)c3cnc(N4CCC(CN5CCC6(CC5)CN(c5ccc7c(c5)C(=O)N(C5CCC(=O)NC5=O)C7=O)C6)CC4)nn3)CC2)cc1Cl` (some centres unmarked) [Compound 279] as the molecule, how does the “inhibitory effect on the proliferation of MDA-MB-453 cells (in words)” value (MDA-MB-453 cells [1]) read?
A: inhibit the proliferation of MDA-MB-453 cells to varying degrees

Q: And the “effect of drug combination with Alpelisib on inhibiting the proliferation of MDA-MB-453 cells” value (MDA-MB-453 cells [2])?
A: synergistic effect

Q: What about the “effect of drug combination with Duvelisib on inhibiting the proliferation of MDA-MB-453 cells” value (MDA-MB-453 cells [3]) of the same molecule?
A: synergistic effect

Q: And the “effect of drug combination with Idelalisib on inhibiting the proliferation of MDA-MB-453 cells” value (MDA-MB-453 cells [4])?
A: synergistic effect

Q: And the “effect of drug combination with Paclitaxel on inhibiting the proliferation of MDA-MB-453 cells” value (MDA-MB-453 cells [5])?
A: synergistic effect
